Data reported in US6790869B2, “Resveratrol analogs for prevention of disease” (Rutgers, The State University of New Jersey, priority 1999, dated 2004).
Read-outs that look alike come from different tables or passages of the source. Values belong to the compound of their own block, whether it stands above or below them.

Assays:
[1] = test system: W138 human diploid fibroblasts; assay: Cell proliferation assay, viable cells counted by trypan blue dye exclusion; type: cell-based; parameters: key to Growth Rate in Cells Following Exposure to Resveratrol Analogs, W138 Cells: +: >60% growth inhibition; —: no effect or only slight inhibition observed; conditions: for Growth Rate in Cells Following Exposure to Resveratrol Analogs, W138 Cells: at the concentration in parentheses after the analog, 5 days in culture
Description: (§1) Initial tests examined the potential cancer preventive activity of the analogs. Resveratrol and its analogs were evaluated in W138 and SV40 transformed W138VA cells and in preneoplastic 184-B5/HER and neoplastic SK-BR-3 human mammary epithelial cells. Cell proliferation, apoptosis, and gene expression studies were conducted using standard methodologies.
(§2) W138 human diploid fibroblasts and cancerous SV40-transformed W138 cells (W138VA) were used in a cell proliferation assay. Growth rate and viability of these cells was determined following addition of each analog. Doses tested ranged from 50 ng to 300 μg per ml or 1 μM to 100 μM concentrations in culture media. Cell cultures were grown for 5 days in the presence of the various doses of analogs. Growth rate was measured by counting viable cells using the trypan blue dye exclusion method. Resveratrol inhibited cell growth at low concentrations, less than 10 μM. […] MR-1 was not active as an inhibitor of cell growth even at doses as high as 100 μM.

[2] = test system: SV40-transformed W138 cells (W138VA); assay: as above; type: cell-based, human; parameters: key to Growth Rate in Cells Following Exposure to Resveratrol Analogs, W138VA Cells: +: >60% growth inhibition; —: no effect or only slight inhibition observed; conditions: for Growth Rate in Cells Following Exposure to Resveratrol Analogs, W138VA Cells: at the concentration in parentheses after the analog, 5 days in culture
Description: as §1, §2

W138 and W138VA cells = assay: Cell proliferation assay, result not separated by cell line; type: cell-based, human; conditions: for effective concentration for growth inhibition: value in parentheses in Table 1, W138 / W138VA cells, 5 days
Description: as §1, §2

W138 cells [3] = assay: Morphological changes in cells; type: cell-based, human; conditions: normal W138 cells
Source text: (§3) In addition to inhibition of cell growth, treatment of W138 and W138VA cells with analogs led to morphological changes in the cells. Treatment of W138 cells with resveratrol and its analogs R-1 and R-3 led to elongation of normal W138 cells. Methoxy analogs such as MR-0 and MR-3 caused the flattening of W138 cells.

184-B5/HER cells [4] = assay: Growth inhibition in 184-B5/HER cells; type: cell-based; conditions: Homo sapiens
Description: as §1
(§4) Resveratrol and its analogs were also tested in 184-B5/HER cells.

184-B5/HER cells [5] = assay: Apoptosis assay, fluorescent labeling of fragmented DNA; type: cell-based, human
Source text: (§5) The effect of the analogs on apoptosis was also examined. Apoptosis is characterized by nuclear DNA fragmentation that is mediated through a variety of signal transduction pathways. An assay was used that relies on fluorescent labeling of fragmented DNA.

184-B5/HER cells [6] = assay: Anchorage-dependent colony formation assay; type: cell-based; conditions: Homo sapiens
Source text: Cell colony formation was also examined in 184-B5/HER cells. […] Resveratrol, MR-0 and MR-2 produced approximately 25-40% inhibition in the anchorage-dependent colony formation assay. MR-3, however, produced almost a 80% inhibition of colony formation.

[7] = test system: human glyceraldehyde-3-phosphate dehydrogenase (HG3PDH) expression; assay: Targeted gene assay by RT-PCR; type: cell-based; conditions: W138 and W138VA cells, serum-stimulated from G0
Description: (§6) Targeted gene assay was then performed using RT-PCR. Both normal (W138) and cancerous (W138VA) cells at resting phase (G0) were treated with 10-15% fetal bovine serum to initiate growth stimulation. Cells were then harvested at various time points during cell cycle progression. Total RNA was prepared from these cells according to standard RT-PCR methods. Paired gene specific primers were prepared and used including human glyceraldehyde-3-phosphate dehydrogenase HG3PDH), c-fos, c-myc, ornithine decarboxylase (ODC), proliferating cell nuclear antigen (PCNA), thymidine kinase (TK), cyclooxygenase 2 (COX2), BRCA1, BRCA2, p53, APC, MCC, pRb, cyclooxygenase 1 (COX1), bc12, and Bax. […] Expression of c-fos and c-myc, an early G1 event in normal W138 cells, were both deregulated in transformed W138VA cells. […] Similarly, treatment of cells, both normal and transformed, with either resveratrol or MR-3 had no effect on expression of ODC, PCNA, or TK genes (all cell cycle dependent genes).

c-fos expression = assay: Targeted gene assay by RT-PCR; type: cell-based, human; conditions: W138 and W138VA cells, serum-stimulated from G0
Description: as §6

c-myc expression = assay: Targeted gene assay by RT-PCR; type: cell-based, human; conditions: W138 and W138VA cells, serum-stimulated from G0
Description: as §6

[8] = test system: ornithine decarboxylase (ODC) gene expression; assay: Targeted gene assay by RT-PCR; type: cell-based, human; conditions: both normal and transformed cells
Description: as §6

[9] = test system: proliferating cell nuclear antigen (PCNA) gene expression; assay: Targeted gene assay by RT-PCR; type: cell-based, human; conditions: both normal and transformed cells
Description: as §6

[10] = test system: thymidine kinase (TK) gene expression; assay: Targeted gene assay by RT-PCR; type: cell-based, human; conditions: both normal and transformed cells
Description: as §6

BRCA1 gene expression = assay: Targeted gene assay by RT-PCR; type: cell-based, human; conditions: for effect on expression of BRCA1 gene: human cells, all time points examined
Description: as §6
(§7) Both BRCA1 and BRCA2 are breast cancer genes that together appear to be responsible for more than 60% of total hereditary breast cancers. Therefore, resveratrol and its analogs appear to modulate the breast cancer genes.

BRCA2 gene expression = assay: Targeted gene assay by RT-PCR; type: cell-based, human; conditions: for effect on expression of BRCA2 gene: human cells, all time points examined
Description: as §6, §7

[11] = test system: neutral β-galactosidase activity in W138 cells; assay: Neutral β-galactosidase staining (senescence marker); type: cell-based, human; conditions: accompanying flattening
Source text: as §3

184-B5/HER cells [12] = assay: Cell cycle analysis; type: cell-based, human
Description: as §4

[13] = test system: cyclooxygenase 2 (COX2) expression; assay: Targeted gene assay by RT-PCR; type: cell-based, human
Description: as §6

[14] = test system: oncogene expression preneoplastic breast epithelial cells; assay: In vivo tumor inhibition in an orthotransplant model; conditions: mice, AIN-76A diet with 400 ppm
Description: The in vivo tumor inhibitory effects of MR-3 were tested in an orthotransplant model. Mice were transplanted with an oncogene expression preneoplastic breast epithelial cells. Mice were then divided into groups with the control group fed AIN-76A diet alone. Another group of mice was fed AIN-76A diet supplemented with 400 ppm MR-3.

W138 cells [15] = assay: Apoptosis assay, fluorescent labeling of fragmented DNA; type: cell-based, human
Source text: as §5

W138VA cells = assay: as above; type: cell-based, human
Source text: as §5

[16] = read-out: concentration that inhibited growth by 50% (IC50), 184-B5/HER cells
[17] = 184-B5/HER cells, continuous treatment with 4 μM, read-out: inhibition of colony formation

effect on expression of HG3PDH [7]: did not affect the expression
SMILES: Oc1ccc(C=Cc2cc(O)cc(O)c2)cc1 [Resveratrol, 3,4′,5-trihydroxystilbene]
Growth Rate in Cells Following Exposure to Resveratrol Analogs, W138 Cells [1]: +^2 (>60% growth inhibition)
Growth Rate in Cells Following Exposure to Resveratrol Analogs, W138VA Cells [2]: + (>60% growth inhibition)
concentration at which cell growth was inhibited (W138 and W138VA cells; 5 days in culture): less than 10 μM
effective concentration for growth inhibition (W138 and W138VA cells): R0 (10 μM)^1
morphological change of cells (W138 cells [3]): elongation
IC50 (184-B5/HER cells [4]; [16]): 10.5 µM
induction of apoptosis versus solvent-treated control cells (184-B5/HER cells [5]): induced apoptosis to a significantly greater extent than solvent-treated control cells
inhibition at 4 µM (184-B5/HER cells [6]; [17]): 25 to 40%
effect on expression of c-fos (c-fos expression): did not significantly affect the expression
effect on expression of c-myc (c-myc expression): did not significantly affect the expression
effect on expression of ODC gene [8]: no effect
effect on expression of PCNA gene [9]: no effect
effect on expression of TK gene [10]: no effect
effect on expression of BRCA1 gene (BRCA1 gene expression): completely abolished expression
effect on expression of BRCA2 gene (BRCA2 gene expression): completely abolished expression

SMILES: COc1ccc(C=Cc2cc(OC)c(OC)c(OC)c2)cc1 [MR-3, 3,4,4′,5-tetramethoxystilbene]
effect on growth ([1]; W138 cells, 1 μM): no effect
Growth Rate in Cells Following Exposure to Resveratrol Analogs, W138 Cells [1]: —
effect on proliferation ([2]; W138VA cells, 1 μM): completely blocked proliferation
Growth Rate in Cells Following Exposure to Resveratrol Analogs, W138VA Cells [2]: + (>60% growth inhibition)
rank in inhibiting cell growth among the methylated analogs (W138 and W138VA cells): most effective
effective concentration for growth inhibition (W138 and W138VA cells): MR3 (1 μM)
morphological change of cells (W138 cells [3]): flattening
neutral β-galactosidase activity (staining) [11]: increase in neutral β-galactosidase activity
IC50 (184-B5/HER cells [4]; 184B5, read-out: concentration that inhibited growth by 50% (IC50)): 1 µM
cell cycle effect relative to solvent-treated control cultures (184-B5/HER cells [12]): progressive arrest of cell in the G2/M phase
rank in cell cycle arrest (184-B5/HER cells [12]): most effective compound
induction of apoptosis versus solvent-treated control cells (184-B5/HER cells [5]): no effect
inhibition at 4 µM (184-B5/HER cells [6]; 184B5, read-out: inhibition of colony formation): ~80%
effect on expression of HG3PDH [7]: did not affect the expression
effect on expression of c-fos (c-fos expression): did not significantly affect the expression
effect on expression of c-myc (c-myc expression): did not significantly affect the expression
effect on expression of COX2 ([13]; W138VA cells): stimulated the expression
effect on expression of COX2 ([13]; W138 cells): not in W138 cells
effect on expression of ODC gene [8]: no effect
effect on expression of PCNA gene [9]: no effect
effect on expression of TK gene [10]: no effect
potency in inhibiting expression of BRCA1 compared with resveratrol (BRCA1 gene expression; at equal doses): more potent than resveratrol
effect on expression of BRCA1 gene (BRCA1 gene expression): completely abolished expression
potency in inhibiting expression of BRCA2 compared with resveratrol (BRCA2 gene expression; at equal doses): more potent than resveratrol
effect on expression of BRCA2 gene (BRCA2 gene expression): completely abolished expression
weight gains compared with control group ([14]; 12 weeks): comparable
tumor incidence ([14]; 12 weeks continuous feeding, control group 100%): 20%

SMILES: COc1cc(C=Cc2ccc(OC)c(OC)c2)cc(OC)c1 [MR-2, 3,3′,4,5′-tetramethoxystilbene]
IC50 (184-B5/HER cells [4]; [16]): 120 µM
cell cycle effect relative to solvent-treated control cultures (184-B5/HER cells [12]): progressive arrest of cell in the G2/M phase
induction of apoptosis versus solvent-treated control cells (184-B5/HER cells [5]): induced apoptosis to a significantly greater extent than solvent-treated control cells
inhibition at 4 µM (184-B5/HER cells [6]; [17]): 25 to 40%

SMILES: COc1ccc(C=Cc2cc(OC)cc(OC)c2)cc1 [MR-0, 3,4′,5-trimethoxystilbene]
ability to inhibit cell growth compared with resveratrol ([1]; W138 cells): less effective than resveratrol
Growth Rate in Cells Following Exposure to Resveratrol Analogs, W138 Cells [1]: + (>60% growth inhibition)
ability to inhibit cell growth compared with resveratrol ([2]; W138VA cells): did not significantly affect
Growth Rate in Cells Following Exposure to Resveratrol Analogs, W138VA Cells [2]: + (>60% growth inhibition)
effective concentration for growth inhibition (W138 and W138VA cells): MR0 (100 μM)
morphological change of cells (W138 cells [3]): flattening
neutral β-galactosidase activity (staining) [11]: increase in neutral β-galactosidase activity
IC50 (184-B5/HER cells [4]; [16]): 10.5 µM
cell cycle effect relative to solvent-treated control cultures (184-B5/HER cells [12]): progressive arrest of cell in the G2/M phase
induction of apoptosis versus solvent-treated control cells (184-B5/HER cells [5]): induced apoptosis to a significantly greater extent than solvent-treated control cells
inhibition at 4 µM (184-B5/HER cells [6]; [17]): 25 to 40%

SMILES: COc1cc(C=Cc2cc(OC)c(OC)c(OC)c2)cc(OC)c1 [MR-5, 3,3′,4,5,5′-pentamethoxystilbene]
Growth Rate in Cells Following Exposure to Resveratrol Analogs, W138 Cells [1]: + (>60% growth inhibition)
Growth Rate in Cells Following Exposure to Resveratrol Analogs, W138VA Cells [2]: + (>60% growth inhibition)
effective concentration for growth inhibition (W138 and W138VA cells): MR5 (100 μM)

SMILES: COc1cc(C=Cc2cc(OC)cc(OC)c2)cc(OC)c1 [MR-4, 3,3′,5′5′-tetramethoxystilbene]
inhibition of growth ([1]; W138 cells, 100 μM): inhibited growth
Growth Rate in Cells Following Exposure to Resveratrol Analogs, W138 Cells [1]: + (>60% growth inhibition)
inhibition of growth ([2]; W138VA cells, 100 μM): not W138VA cells
Growth Rate in Cells Following Exposure to Resveratrol Analogs, W138VA Cells [2]: —
effective concentration for growth inhibition (W138 and W138VA cells): MR4 (100 μM)

SMILES: Oc1cc(O)cc(C=Cc2ccccc2)c1 [Analog R-1, 3,5-dihydroxystilbene]
morphological change of cells (W138 cells [3]): elongation

SMILES: COc1cc(C=Cc2ccccc2)cc(OC)c1 [MR-1, 3,5-dimethoxystilbene]
Growth Rate in Cells Following Exposure to Resveratrol Analogs, W138 Cells [1]: —^4
Growth Rate in Cells Following Exposure to Resveratrol Analogs, W138VA Cells [2]: —
activity as an inhibitor of cell growth (W138 and W138VA cells; doses as high as 100 μM): not active
effective concentration for growth inhibition (W138 and W138VA cells): MR1 (100 μM)

SMILES: Oc1ccc(C=Cc2cc(O)c(O)c(O)c2)cc1 [Analog R-3, 3,4,4′,5-tetrahydroxystilbene]
Growth Rate in Cells Following Exposure to Resveratrol Analogs, W138 Cells [1]: + (>60% growth inhibition)
Growth Rate in Cells Following Exposure to Resveratrol Analogs, W138VA Cells [2]: + (>60% growth inhibition)
fold less effective than resveratrol in inhibiting cell growth (W138 and W138VA cells; relative to resveratrol): 10 fold
effective concentration for growth inhibition (W138 and W138VA cells): R3 (10 μM)
morphological change of cells (W138 cells [3]): elongation
induction of apoptosis (W138 cells [15]): not in W138 cells
induction of apoptosis (W138VA cells): induced apoptosis
